Data: patent publication US8952024B2, “Herbicidal pyrimidone derivatives” (E I du Pont de Nemours and Company, priority 2009, dated 2015)

Key:
Format in all cases: in vivo
[1] = test system: canarygrass (Phalaris minor); assay: Test B postemergence plant response; conditions: Postemergence
In short: (§1)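 Visual ratings from 0 (no effect) to 100 (complete control), made against controls 13–15 days after treatment, kept in a greenhouse. Compounds were applied postemergence to potted plants at the 1- to 4-leaf stage (2–18 cm).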

[2] = test system: windgrass (Apera spica-venti); assay: Test B postemergence plant response; conditions: Postemergence
In short: as §1

[3] = test system: winter barley (Hordeum vulgare); assay: Test B postemergence plant response
In short: as §1

[4] = test system: chickweed (Stellaria media); assay: Test B postemergence plant response; conditions: Postemergence
In short: as §1

[5] = test system: lambsquarters (Chenopodium album); assay: Test B pre-/postemergence plant response
In short: (§2)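 Steps: sow seed in loam–sand soil and spray preemergence, or grow plants in peat-based medium to 1–4 leaves (2–18 cm) and spray postemergence; formulation is non-phytotoxic solvent plus surfactant; hold in greenhouse 13–15 days; score visually vs controls, 0 = no effect, 100 = complete control.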

[6] = test system: johnsongrass (Sorghum halepense); assay: Test B pre-/postemergence plant response
In short: as §2

[7] = test system: pigweed (Amaranthus retroflexus); assay: Test B pre-/postemergence plant response
In short: as §2

[8] = test system: velvetleaf (Abutilon theophrasti); assay: Test B pre-/postemergence plant response
In short: as §2

corn (Zea mays) = assay: Test B pre-/postemergence plant response
In short: as §2

[9] = test system: green foxtail (Setaria viridis); assay: Test B pre-/postemergence plant response
In short: as §2

[10] = test system: yellow nutsedge (Cyperus esculentus); assay: Test B pre-/postemergence plant response
In short: as §2

[11] = test system: giant foxtail (Setaria faberii); assay: Test B pre-/postemergence plant response
In short: as §2

soybean (Glycine max) = assay: Test B pre-/postemergence plant response
In short: as §2

[12] = test system: goosegrass (Eleusine indica); assay: Test B pre-/postemergence plant response
In short: as §2

[13] = 31 g ai/ha, 0 to 100 scale (0 no effect, 100 complete control)
[14] = 125 g ai/ha, scale 0 to 100 (0 no effect, 100 complete control)
[15] = 250 g ai/ha, scale 0 to 100 (0 no effect, 100 complete control), 13 to 15 days
[16] = Postemergence, 31 g ai/ha, 0 to 100 scale (0 no effect, 100 complete control)
[17] = Postemergence, 125 g ai/ha, scale 0 to 100 (0 no effect, 100 complete control)
[18] = Postemergence, 250 g ai/ha, scale 0 to 100 (0 no effect, 100 complete control), 13 to 15 days
[19] = 31 g ai/ha, scale 0 to 100 (0 no effect, 100 complete control)
[20] = 62 g ai/ha, scale 0 (no effect) to 100 (complete control), 13 to 15 days
[21] = 125 g ai/ha, visual rating after 13 to 15 days, scale 0 (no effect) to 100 (complete control)
[22] = Postemergence, 31 g ai/ha, scale 0 to 100 (0 no effect, 100 complete control)
[23] = Postemergence, 62 g ai/ha, scale 0 (no effect) to 100 (complete control), 13 to 15 days
[24] = Postemergence, 125 g ai/ha, visual rating after 13 to 15 days, scale 0 (no effect) to 100 (complete control)
[25] = Postemergence, 250 g ai/ha, scale 0 to 100
[26] = 250 g ai/ha, Preemergence, 0 to 100 scale
[27] = Preemergence, 31 g ai/ha, scale 0 to 100 (0 no effect, 100 complete control)
[28] = Preemergence, 62 g ai/ha, scale 0 to 100 (0 no effect, 100 complete control)
[29] = Preemergence, 125 g ai/ha, 0 to 100 scale

Cc1ccc(Cl)cc1-n1c(-c2cccc(F)c2)ncc(C(=O)C2=C(O)CCCC2=O)c1=O [Compound 184]
Plant response rating, Canarygrass [1, 13]: 45
Plant response rating, Canarygrass [1, 14]: 80
Plant response rating, Canarygrass [1, 15]: 95
Plant response rating, Windgrass [2, 13]: 60
Plant response rating, Windgrass [2, 14]: 90
Plant response rating, Windgrass [2, 15]: 100
Barley plant response rating (0 to 100 scale) ([3]; 62 g ai/ha, postemergence, 0 is no effect, 100 is complete control, 13 to 15 days): 40
Plant response rating, Barley [3, 16]: 5
Plant response rating, Barley [3, 17]: 60
Plant response rating, Barley [3, 18]: 60
Plant response rating, Chickweed [4, 13]: 100
Plant response rating, Chickweed [4, 14]: 100
Plant response rating, Chickweed [4, 15]: 100
Plant response rating, Lambsquarters [5, 16]: 80
Plant response rating, Lambsquarters [5, 17]: 100
Plant response rating, Lambsquarters [5, 18]: 100
Plant response rating, Johnsongrass [6, 16]: 100
Plant response rating, Johnsongrass [6, 17]: 100
Plant response rating, Johnsongrass [6, 18]: 100
Plant response rating, Pigweed [7, 16]: 70
Plant response rating, Pigweed [7, 17]: 75
Plant response rating, Pigweed [7, 18]: 100
Plant response rating, Velvetleaf [8, 16]: 85
Plant response rating, Velvetleaf [8, 17]: 100
Plant response rating, Velvetleaf [8, 18]: 100
Plant response rating, Corn (corn (Zea mays); [16]): 80
Plant response rating, Corn (corn (Zea mays); [17]): 85
Plant response rating, Corn (corn (Zea mays); [18]): 98
Plant response rating, Foxtail, Green [9, 16]: 30
Plant response rating, Foxtail, Green [9, 17]: 85
Plant response rating, Foxtail, Green [9, 18]: 98
Plant response rating, Nutsedge, Yellow [10, 16]: 35
Plant response rating, Nutsedge, Yellow [10, 17]: 45
Plant response rating, Nutsedge, Yellow [10, 18]: 75
Plant response rating, Foxtail, Giant [11, 16]: 98
Plant response rating, Foxtail, Giant [11, 17]: 100
Plant response rating, Foxtail, Giant [11, 18]: 100
Plant response rating, Soybean (soybean (Glycine max); [16]): 98
Plant response rating, Soybean (soybean (Glycine max); [17]): 100
Plant response rating, Soybean (soybean (Glycine max); [18]): 100
Plant response rating, Goosegrass [12, 16]: 100
Plant response rating, Goosegrass [12, 17]: 100
Plant response rating, Goosegrass [12, 18]: 100

Cc1cc(C)cc(-n2c(-c3ccccc3)ncc(C(=O)C3=C(O)CCCC3=O)c2=O)c1 [Compound 33]
Plant response rating, Canarygrass [1, 19]: 0
Plant response rating, Canarygrass [1, 20]: 0
Plant response rating, Canarygrass [1, 21]: 5
Canarygrass plant response rating ([1]; 250 g ai/ha, scale 0 to 100): 5
Plant response rating, Windgrass [2, 20]: 25
Plant response rating, Windgrass [2, 21]: 30
Plant response rating, Barley [3, 22]: 0
Plant response rating, Barley [3, 23]: 0
Plant response rating, Barley [3, 24]: 0
Barley plant response rating [3, 25]: 0
Plant response rating, Chickweed [4, 19]: 80
Plant response rating, Chickweed [4, 20]: 98
Plant response rating, Chickweed [4, 21]: 100
Chickweed plant response rating ([4]; 250 g ai/ha, scale 0 to 100): 100
Plant response rating, Lambsquarters [5, 26]: 100
Plant response rating, Lambsquarters [5, 23]: 98
Plant response rating, Lambsquarters [5, 24]: 98
Lambsquarters plant response rating [5, 25]: 100
Plant response rating, Lambsquarters [5, 27]: 98
Plant response rating, Lambsquarters [5, 28]: 100
Lambsquarters plant response rating [5, 29]: 100
Plant response rating, Johnsongrass [6, 26]: 20
Plant response rating, Johnsongrass [6, 23]: 35
Plant response rating, Johnsongrass [6, 24]: 35
Johnsongrass plant response rating [6, 25]: 40
Plant response rating, Johnsongrass [6, 27]: 0
Plant response rating, Johnsongrass [6, 28]: 0
Johnsongrass plant response rating [6, 29]: 0
Plant response rating, Pigweed [7, 26]: 100
Plant response rating, Pigweed [7, 23]: 95
Plant response rating, Pigweed [7, 24]: 98
Plant response rating, Pigweed [7, 27]: 100
Plant response rating, Pigweed [7, 28]: 100
Pigweed plant response rating [7, 29]: 100
Plant response rating, Velvetleaf [8, 26]: 100
Plant response rating, Velvetleaf [8, 23]: 90
Plant response rating, Velvetleaf [8, 24]: 98
Plant response rating, Velvetleaf [8, 27]: 80
Plant response rating, Velvetleaf [8, 28]: 90
Velvetleaf plant response rating [8, 29]: 100
Plant response rating, Corn (corn (Zea mays); [26]): 0
Plant response rating, Corn (corn (Zea mays); [22]): 0
Plant response rating, Corn (corn (Zea mays); [23]): 10
Plant response rating, Corn (corn (Zea mays); [24]): 10
Corn plant response rating (corn (Zea mays); [25]): 15
Plant response rating, Corn (corn (Zea mays); [27]): 0
Plant response rating, Corn (corn (Zea mays); [28]): 0
Corn plant response rating (corn (Zea mays); [29]): 0
Plant response rating, Foxtail, Green [9, 26]: 100
Plant response rating, Foxtail, Green [9, 22]: 50
Plant response rating, Foxtail, Green [9, 23]: 85
Plant response rating, Foxtail, Green [9, 24]: 90
Foxtail, Green plant response rating [9, 25]: 90
Plant response rating, Foxtail, Green [9, 27]: 0
Plant response rating, Foxtail, Green [9, 28]: 45
Foxtail, Green plant response rating [9, 29]: 100
Plant response rating, Nutsedge, Yellow [10, 26]: 90
Plant response rating, Nutsedge, Yellow [10, 23]: 50
Plant response rating, Nutsedge, Yellow [10, 24]: 75
Plant response rating, Nutsedge, Yellow [10, 27]: 0
Plant response rating, Nutsedge, Yellow [10, 28]: 45
Nutsedge, Yellow plant response rating [10, 29]: 70
Plant response rating, Foxtail, Giant [11, 26]: 98
Plant response rating, Foxtail, Giant [11, 22]: 75
Plant response rating, Foxtail, Giant [11, 23]: 80
Plant response rating, Foxtail, Giant [11, 24]: 85
Foxtail, Giant plant response rating [11, 25]: 95
Plant response rating, Foxtail, Giant [11, 27]: 10
Plant response rating, Foxtail, Giant [11, 28]: 45
Foxtail, Giant plant response rating [11, 29]: 95
Plant response rating, Soybean (soybean (Glycine max); [26]): 75
Plant response rating, Soybean (soybean (Glycine max); [23]): 98
Plant response rating, Soybean (soybean (Glycine max); [24]): 98
Plant response rating, Soybean (soybean (Glycine max); [27]): 60
Plant response rating, Soybean (soybean (Glycine max); [28]): 60
Soybean plant response rating (soybean (Glycine max); [29]): 65
Plant response rating, Goosegrass [12, 26]: 98
Plant response rating, Goosegrass [12, 23]: 75
Plant response rating, Goosegrass [12, 24]: 85
Goosegrass plant response rating [12, 25]: 85
Plant response rating, Goosegrass [12, 27]: 80
Goosegrass plant response rating [12, 29]: 90
